For test [1], the target named is T1, HCV NS3/4A protease complex (BMS strain) (UniProt P27958).
T1 construct: other: HCV NS3/4A enzyme assay; said of H77 and J4L6S; fused on or other part: Three-lysine solubilising tail at the NS4A C-terminus and a His tag from pET21b (Ni-NTA purification), for the H77 and J4L6S constructs
Nature of the test: FRET peptide assay to monitor HCV NS3/4A proteolytic activity, BMS strain. Type of test: biochemical, Hepatitis C virus (genotype 1a). The following applies: read-out: IC50 Range; HCV NS3/4A enzyme assay; Table 1. An excerpt:
HCV NS3 protease complexes, derived from the BMS strain, H77 strain or J4L6S strain, were generated, as described below. These purified recombinant proteins were generated for use in a homogeneous assay (see below) to provide an indication of how effective compounds of the present disclosure would be in inhibiting HCV NS3 proteolytic activity.
Serum from an HCV-infected patient was obtained from Dr. T. Wright, San Francisco Hospital. An engineered full-length cDNA (compliment deoxyribonucleic acid) template of the HCV genome (BMS strain) was constructed from DNA fragments obtained by reverse transcription-PCR (RT-PCR) of serum RNA (ribonucleic acid) and using primers selected on the basis of homology between other genotype 1a strains. From the determination of the entire genome sequence, a genotype 1a was assigned to the HCV isolate according to the classification of Simmonds et al. (See P Simmonds, K A Rose, S Graham, S W Chan, F McOmish, B C Dow, E A Follett, P L Yap and […] Marsden, J. Clin. Microbiol., 31(6), 1493-1503 (1993)). […] The infectious clones, H77 (1a genotype) and J4L6S (1b genotype) were obtained from R. Purcell (NIH) and the sequences are published in Genbank (AAB67036, see Yanagi, M., Purcell, R. H., Emerson, S. U. and Bukh, J. Proc. Natl. Acad. Sci. U.S.A. 94(16), 8738-8743 (1997); AF054247, see Yanagi, M., St Claire, M., Shapiro, M., Emerson, S. U., Purcell, R. H. and Bukh, J, Virology 244 (1), 161-172. (1998)).
NS3/4A protease complex-containing fractions were pooled and loaded on a desalting column Superdex-S200 pre-equilibrated with buffer D (25 mM HEPES, pH 7.5, 20% glycerol, 300 mM NaCl, 0.2% Triton X-100, 10 mM βME). Sample was loaded at a flow rate of 1 mL/min. NS3/4A protease complex-containing fractions were pooled and concentrated to approximately 0.5 mg/ml. The purity of the NS3/4A protease complexes, derived from the BMS, H77 and J4L6S strains, were judged to be greater than 90% by SDS-PAGE and mass spectrometry analyses. The enzyme was stored at −80° C., thawed on ice and diluted prior to use in assay buffer.
The purpose of this in vitro assay was to measure the inhibition of HCV NS3 protease complexes, derived from the BMS strain, H77 strain or J4L6S strain, as described above, by compounds of the present disclosure. This assay provides an indication of how effective compounds of the present disclosure would be in inhibiting HCV NS3 proteolytic activity.
In order to monitor HCV NS3/4A protease activity, an NS3/4A peptide substrate was used. The substrate was RET S1 (Resonance Energy Transfer Depsipeptide Substrate; AnaSpec, Inc. cat # 22991) (FRET peptide), described by Taliani et al. in Anal. Biochem. 240(2):60-67 (1996). The sequence of this peptide is loosely based on the NS4A/NS4B natural cleavage site for the HCV NS3 protease except there is an ester linkage rather than an amide bond at the cleavage site. The peptide also contains a fluorescence donor, EDANS, near one end of the peptide and an acceptor, DABCYL, near the other end. The fluorescence of the peptide is quenched by […] resonance energy transfer (RET) between the donor and the acceptor, but as the NS3 protease cleaves the peptide the products are released from RET quenching and the fluorescence of the donor becomes apparent.
The peptide substrate was incubated with one of the three recombinant NS3/4A protease complexes, in the absence or presence of a compound of the present disclosure. The inhibitory effects of a compound were determined by monitoring the formation of fluorescent reaction product in real time using a Cytofluor Series 4000.
Assay buffer: 50 mM HEPES, pH 7.5; 0.15 M NaCl; 0.1% Triton; 15% Glycerol; 10 mM βME. Substrate: 2 μM final concentration (from a 2 mM stock solution in DMSO stored at −20° C.). HCV NS3/4A protease type 1a (1b), 2-3 nM final concentration (from a 5 μM stock solution in 25 mM HEPES, pH 7.5, 20% glycerol, 300 mM NaCl, 0.2% Triton-X100, 10 mM βME). […]

The test system of test [2] is HCV replicon in HUH-7 cells. Description: HCV replicon FRET assay. It is filed as cell-based, Hepatitis C virus (strain 1b). To be noted: Hepatitis C virus, Huh-7, read-out: EC50 Range, HCV replicon cell assay; Table 1. An excerpt: An HCV replicon whole cell system was established as described by Lohmann V, Korner F, Koch J, Herian U, Theilmann L, Bartenschlager R., Science 285(5424): 110-3 (1999). This system enabled us to evaluate the effects of our HCV Protease compounds on HCV RNA replication. Briefly, using the HCV strain 1b sequence described in the Lohmann paper (Assession number: AJ238799), an HCV cDNA was synthesized by Operon Technologies, Inc. (Alameda, Calif.), and the full-length replicon was then assembled in plasmid pGem9zf(+) (Promega, Madison, Wis.) using standard molecular biology techniques. The replicon consists of (i) the HCV 5′ UTR fused to the first 12 amino acids of the capsid protein, (ii) the neomycin phosphotransferase gene (neo), (iii) the IRES from encephalomyocarditis virus (EMCV), and (iv) HCV NS3 to NS5B genes and the HCV 3′ UTR. Plasmid DNAs were linearized with ScaI and RNA transcripts were synthesized in vitro using the T7 MegaScript transcription kit (Ambion, Austin, Tex.) according to manufacturer's directions. In vitro transcripts of the cDNA were transfected into the human hepatoma cell line, HUH-7. […] Resulting cell lines were characterized for positive and negative strand RNA production and protein production over time.
The HCV replicon FRET assay was developed to monitor the inhibitory effects of compounds described in the disclosure on HCV viral replication. HUH-7 cells, constitutively expressing the HCV replicon, were grown in Dulbecco's Modified Eagle Media (DMEM) (Gibco-BRL) containing 10% Fetal calf serum (FCS) (Sigma) and 1 mg/ml G418 (Gibco-BRL). Cells were seeded the night before (1.5×10^4 cells/well) in 96-well tissue-culture sterile plates. Compound and no compound controls were prepared in DMEM containing 4% FCS, 1:100 Penicillin/Streptomysin (Gibco-BRL), 1:100 L-glutamine and 5% DMSO in the dilution plate (0.5% DMSO final concentration in the assay). Compound/DMSO mixes were added to the cells and incubated for 4 days at 37° C. After 4 days, cells were first assessed for cytotoxicity using alamar Blue (Trek Diagnotstic Systems) for a CC50 reading. The toxicity of compound (CC50) was determined by adding 1/10th volume of alamarBlue to the media incubating the cells. After 4 h, the fluorescence signal from each well was read, with an excitation wavelength at 530 nm and an emission wavelength of 580 nm, using the Cytofluor Series 4000 (Perspective Biosystems). Plates were then rinsed thoroughly with Phosphate-Buffered Saline (PBS) (3 times 150 μl). The cells were lysed with 25 μl of a lysis assay reagent containing an HCV protease substrate (5× cell Luciferase cell culture lysis reagent (Promega #E153A) diluted to 1× with distilled water, NaCl added to 150 mM final, the FRET peptide substrate (as described for the enzyme assay above) diluted to 10 μM final from a 2 mM stock in 100% DMSO. The plate was then placed into the Cytofluor 4000 instrument which had been set to 340 nm excitation/490 nm emissions, automatic mode for 21 cycles and the plate read in a kinetic mode. EC50 determinations were carried out as described for the IC50 determinations.
A general note: In antiviral work, replicon cells carry a viral genome segment that copies itself.

Usually IC50 stands for the midpoint of a concentration-inhibition curve. The term EC50 denotes the concentration at which the effect is half-maximal.

T1 sequence (P27958 1027-1657, one chain of several): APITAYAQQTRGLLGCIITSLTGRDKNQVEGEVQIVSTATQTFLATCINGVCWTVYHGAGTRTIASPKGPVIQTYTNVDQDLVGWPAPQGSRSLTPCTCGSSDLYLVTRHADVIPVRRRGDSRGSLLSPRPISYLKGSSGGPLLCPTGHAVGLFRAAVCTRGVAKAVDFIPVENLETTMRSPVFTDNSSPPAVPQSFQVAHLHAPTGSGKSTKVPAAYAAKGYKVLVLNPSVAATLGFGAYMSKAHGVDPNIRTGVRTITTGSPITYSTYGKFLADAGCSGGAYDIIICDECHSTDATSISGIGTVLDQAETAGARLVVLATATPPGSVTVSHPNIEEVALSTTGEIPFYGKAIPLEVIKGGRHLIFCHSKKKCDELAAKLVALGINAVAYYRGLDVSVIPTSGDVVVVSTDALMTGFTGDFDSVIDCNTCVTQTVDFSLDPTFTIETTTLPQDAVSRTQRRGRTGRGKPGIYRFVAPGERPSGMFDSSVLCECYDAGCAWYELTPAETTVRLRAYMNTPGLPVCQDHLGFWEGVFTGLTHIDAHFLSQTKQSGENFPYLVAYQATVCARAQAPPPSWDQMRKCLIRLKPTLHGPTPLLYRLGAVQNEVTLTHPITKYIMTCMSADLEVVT

With `C=C[C@@H]1C[C@]1(NC(=O)[C@@H]1C[C@@H](Oc2cc(-c3ccccc3)nc3cc(OC)ccc23)CN1C(=O)[C@H](O)c1ccccc1)C(=O)NS(=O)(=O)C1CC1` [Example 18], the IC50 in test [1] was 100 to 1000 nM. Also, in test [2], the EC50 is over 5000 nM.

Turning to `C=C[C@@H]1C[C@]1(NC(=O)[C@@H]1C[C@@H](Oc2cc(-c3ccccc3)nc3cc(OC)ccc23)CN1C(=O)C(O)CC(C)C)C(=O)NS(=O)(=O)C1CC1` (some centres unmarked) [Example 4,Compound 2], the IC50 in test [1] fell in the range of 100 to 1000 nM. In addition, the EC50 in test [2] fell in the range of 500 to 5000 nM.

As to `C=C[C@@H]1C[C@]1(NC(=O)[C@@H]1C[C@@H](Oc2cc(-c3ccccc3)nc3cc(OC)ccc23)CN1C(=O)[C@@H](O)C(C)C)C(=O)NS(=O)(=O)C1CC1` (stereo in doubt) [Example 4,Compound 5], in test [1], the IC50 is under 100 nM. For the same compound, in test [2], the EC50 was 500 to 5000 nM.

For the compound `C=C[C@@H]1C[C@]1(NC(=O)[C@@H]1C[C@@H](Oc2nccc3ccccc23)CN1C(=O)[C@@H](OC(=O)Nc1ccccc1)C(C)(C)C)C(=O)NS(=O)(=O)C1CC1` [Example 28], in test [1], the IC50 was in the range of 100 to 1000 nM. Besides, in test [2], the EC50 was 500 to 5000 nM.

As for `C=C[C@@H]1C[C@]1(NC(=O)[C@@H]1C[C@@H](Oc2cc(-c3ccccc3)nc3cc(OC)ccc23)CN1C(=O)[C@@H](O)CC(C)C)C(=O)NS(=O)(=O)C1CC1` [Example 4,Compound 6], in test [1], the IC50 was under 100 nM. In addition, the EC50 in test [2] lay within 500 to 5000 nM.

In the case of `CCC1C[C@]1(NC(=O)[C@@H]1C[C@@H](Oc2cc(-c3ccccc3)nc3cc(OC)ccc23)CN1C(=O)[C@@H](O)C1CCCCC1)C(=O)NS(=O)(=O)C1CC1` (some centres unmarked) [Example 13], the half-maximal inhibitory concentration (IC50) in test [1] is under 100 nM. Further, the half-maximal effective concentration (EC50) in test [2] was 500 to 5000 nM.

As for `C=C[C@@H]1C[C@]1(NC(=O)[C@@H]1C[C@@H](Oc2nccc3ccccc23)CN1C(=O)[C@@H](O)C(C)(C)C)C(=O)NS(=O)(=O)C1CC1` [Example 8], in test [1], the IC50 is 100 to 1000 nM. Moreover, in test [2], the EC50 lay within 500 to 5000 nM.

For the compound `C=C[C@@H]1C[C@]1(NC(=O)[C@@H]1C[C@@H](Oc2cc(-c3ccccc3)nc3cc(OC)ccc23)CN1C(=O)[C@@H](O)Cc1c[nH]cn1)C(=O)NS(=O)(=O)C1CC1` [Example 4,Compound 3], in test [1], the IC50 was in the range of 100 to 1000 nM. Moreover, the EC50 in test [2] was over 5000 nM.

Take `C=C[C@@H]1C[C@]1(NC(=O)[C@@H]1C[C@@H](Oc2nc(-c3ccc(OC(F)(F)F)cc3)cc3cc(OC)ccc23)CN1C(=O)[C@@H](O)C1CCCCC1)C(=O)NS(=O)(=O)C1CC1` [Example 62Compound 62]: in test [1], the IC50 is 100 to 1000 nM. The EC50 in test [2] lay in the range of 500 to 5000 nM.

On to `C=C[C@@H]1C[C@]1(NC(=O)[C@@H]1CC(Oc2nc(-c3ccc(OC(F)(F)F)cc3)cc3cc(OC)ccc23)CN1C(=O)[C@@H](O)C(C)(C)C)C(=O)NS(=O)(=O)C1CC1` (some centres unmarked) [Example 20], for which, in test [1], the IC50 is under 100 nM. Besides, the EC50 in test [2] lay within 500 to 5000 nM.

Take `C=C[C@@H]1C[C@]1(NC(=O)[C@@H]1C[C@@H](Oc2nccc3cc(OC)ccc23)CN1C(=O)[C@@H](OC(=O)NC(C)(C)C)C(C)(C)C)C(=O)NS(=O)(=O)c1cn(C)cn1` [Example 60Compound 60]: the IC50 in test [1] was over 1000 nM. Besides, in test [2], the EC50 was over 5000 nM.

In the case of `C=C[C@@H]1C[C@]1(NC(=O)[C@@H]1C[C@@H](Oc2cc(-c3ccccc3)nc3cc(OC)ccc23)CN1C(=O)[C@@H](OC(=O)NC(C)(C)C)C(C)(C)C)C(=O)NS(=O)(=O)C1CC1` [Example 5,Compound 1], in test [1], the IC50 is under 100 nM. Besides, the EC50 in test [2] is under 500 nM.

Consider `C=C[C@@H]1CC1(NC(=O)[C@@H]1C[C@@H](Oc2cc(-c3ccccc3)nc3cc(OC)ccc23)CN1C(=O)[C@@H](OC(=O)NC(C)(C)C)C(C)(C)C)C(=O)NS(=O)(=O)C1(CC2CC2)CC1` (some centres unmarked) [Example 22], for which the 50% inhibitory concentration (IC50) in test [1] was under 100 nM. For the same compound, the EC50 in test [2] is 500 to 5000 nM.

Turning to `C=C[C@@H]1C[C@]1(NC(=O)[C@@H]1C[C@@H](Oc2nc(-c3ccc(OC(F)(F)F)cc3)cc3cc(OC)ccc23)CN1C(=O)[C@@H](OC(=O)NC(C)(C)C)C(C)(C)C)C(=O)NS(=O)(=O)C1CC1` [Example 23], in test [1], the IC50 was under 100 nM. Also, the concentration for a half-maximal effect (EC50) in test [2] is 500 to 5000 nM.

On to `CCC1C[C@]1(NC(=O)[C@@H]1C[C@@H](Oc2cc(-c3ccccc3)nc3cc(OC)ccc23)CN1C(=O)[C@@H](O)CC(C)C)C(=O)NS(=O)(=O)C1CC1` (some centres unmarked) [Example 17], for which the IC50 in test [1] is 100 to 1000 nM. Also, the EC50 in test [2] was in the range of 500 to 5000 nM.

Consider `C=C[C@@H]1C[C@]1(NC(=O)[C@@H]1C[C@@H](Oc2nccc3ccccc23)CN1C(=O)[C@@H](OC(=O)Nc1ccccc1C(C)C)C(C)(C)C)C(=O)NS(=O)(=O)C1CC1` [Example 32], for which, in test [1], the IC50 was in the range of 100 to 1000 nM. Further, the EC50 in test [2] lay in the range of 500 to 5000 nM.

Values taken from US7323447B2, “Hepatitis C virus inhibitors” (Bristol-Myers Squibb Company, priority 2005, dated 2008).
